Experimental data: publication PMC6656724 (Communications Biology, 2019)
Like-named read-outs stand apart in the source and are kept apart here. Values belong to the compound of their own block, whether it stands above or below them.

Assays:
[1] = molecular target: T1, Homo sapiens KMO (HsKMO) (Homo sapiens, UniProt O15229); test: KMO inhibition assay, NADPH oxidation at 340 nm (HsKMO); assay type: biochemical
T1 construct: GST; made in house
From the text: (§1) A combination of ligand- and structural-based virtual screening approaches (see supporting information for details) was used to identify an initial library of >1000 compounds that may be suitable as potential KMO inhibitors. These compounds were screened for inhibition of Pseudomonas fluorescens KMO (PfKMO) and Homo sapiens KMO (HsKMO) using high-throughput assays by monitoring the time-dependent oxidation of NADPH at 340 nm[23].
(§2) Small-molecule compounds were supplied by Biofocus (Charles River Laboratories International Inc., MA, USA), which were identified in silico as potential inhibitors (further details are described in the Supplementary Methods). Initial inhibition assays were performed against Pseudomonas fluorescens KMO (PfKMO) and Homo sapiens KMO (HsKMO) by monitoring the time-dependent absorbance change of NADPH at 340 nm. Purified KMO protein (200 nM) was incubated in 100 µL reaction buffer (20 mM potassium phosphate pH 8.0, 7 mM 2-mercaptoethanol) containing 100 μM NADPH, 100 μM L-Kyn and 20 μM potential inhibitors in 96-well plates. […] The inhibitors identified in the initial screens were validated and re-assayed individually in a 1 cm path-length quartz micro cuvette. […] Suppliers for target inhibitor compounds are listed in Supplementary Table 11.
Supplementary Figure 1. Examples of inhibition data used to generate IC50 values for selected KMO inhibitors.
(§3) NADPH (100µM) were added into reaction buffer (HsKMO: 20mM potassium phosphate pH 8.0, 7 mM 2-mercaptoethanol; PfKMO: 20 mM HEPES, 10mM sodium acetate, pH 7.5, 2mM DTT). The reaction was initiated by the addition of KMO enzyme (HsKMO: 0.5µM; PfKMO: 0.1 µM). KMO activity was measured in the presence of a range of inhibitor concentrations. […]
(§4) 3.5 Steady-state enzymatic assays.
(§5) Initial screening assays and determination of IC50 values for each potential inhibitor compound were carried out using either 0.1 µM PfKMO or 0.5 µM HsKMO at fixed […]
(§6) (HsKMO: 20 mM potassium phosphate pH 8.0, 7 mM 2-mercaptoethanol; PfKMO:
(§7) 20 mM HEPES, 10 mM sodium acetate, pH 7.5, 2 mM DTT). KMO activity was measured in the presence of a range of inhibitor concentrations by monitoring the […]
(§8) consumption of NADPH at 340 nm upon addition of enzyme via a Cary 50 UV-Vis spectrophotometer (Agilent Technologies). Rates were determined from linear regression fits to the initial linear portion of the curves. All measurements were performed in triplicate. The IC50 values for inhibitors were obtained by plotting the percentage inhibition versus the inhibitor concentration and fitting to the Morrison equation16 (equation 1) using Origin 9.0 Software (OriginLab, Northampton, MA).
E + I + K!"" − E + I + K!"" ! − 4[E][I] where v0 is the enzyme activity without inhibitor, vi is the enzyme activity with ligand

[2] = molecular target: T2, Pseudomonas fluorescens KMO (PfKMO) (Pseudomonas fluorescens, UniProt Q84HF5, C252S/C461S); test: biochemical
T2 construct: made in house; host or cells: E. coli BL21 (DE3)
T2 sequence (Q84HF5 whole entry C252S/C461S): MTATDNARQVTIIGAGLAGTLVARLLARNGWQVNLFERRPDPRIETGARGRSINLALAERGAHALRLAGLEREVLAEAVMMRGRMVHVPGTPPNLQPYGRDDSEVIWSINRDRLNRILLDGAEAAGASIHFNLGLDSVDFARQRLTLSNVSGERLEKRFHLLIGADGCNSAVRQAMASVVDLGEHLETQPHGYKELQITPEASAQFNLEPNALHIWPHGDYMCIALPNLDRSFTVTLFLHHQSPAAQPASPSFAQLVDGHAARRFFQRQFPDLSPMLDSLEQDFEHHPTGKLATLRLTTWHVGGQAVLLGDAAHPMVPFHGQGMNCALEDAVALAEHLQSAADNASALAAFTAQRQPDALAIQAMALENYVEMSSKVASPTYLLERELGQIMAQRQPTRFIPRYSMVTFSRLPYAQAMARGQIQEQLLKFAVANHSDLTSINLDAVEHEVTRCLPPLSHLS
From the text: as §1, §2
as §3, with “Supplementary Figure 1. Examples of inhibition data used to generate IC50 values for selected KMO inhibitors. Fixed concentration of L -KYN (200 µM) and NADPH” for “NADPH”
as §4, §5, §6, §7
as §8, with “MA). […]” for “MA).”

[3] = in vitro; assay type: in vitro ADME, canine; details: dog; for Papp A→B at 1 h, 10 µM / Papp B→A at 1 h, 10 µM / recovery at 1 h, 10 µM: MDCK
Experimental: (§9) internal standard at each timepoint. […]
(§10) including an analytical internal standard.
(§11) Apparent permeability (Papp) values were determined from the relationship: […]
(§12) Where V is the volume of each Transwell compartment (apical 125 µL, basolateral 600 µL), and concentrations are the relative MS responses for compound (normalized to internal standard) in the donor chamber before incubation and acceptor chamber at the end of the incubation. Area = area of cells exposed for drug transfer (0.33 cm 2).
(§13) Efflux ratios (Papp B>A / Papp A>B) were calculated for each compound from the […]
(§14) MDR1-MDCK cell line has been engineered to overexpress the efflux transporter, MDR1 (P-glycoprotein), and a finding of good permeability B>A, but poor […]
(§15) order to confirm the involvement of MDR1 in any efflux seen, an “ef fective efflux ratio” (EER) was calculated by comparing compound efflux ratios (ER) in the two cell types, i.e. EER = ER (MDR1-MDCK)/ ER (wild-type MDCK). This ratio illustrates the effect of the over-expressed MDR1 normalised for the background movement of compound through the wild-type cells.
(§16) Lucifer Yellow (LY) was added to the apical buffer in all wells to assess viability of the cell layer. As LY cannot freely permeate lipophilic barriers, a high degree of LY […]
(§17) validity of other wells on the plate.
(§18) Compound recovery from the wells was determined from MS responses (normalized to internal standard) in donor and acceptor chambers at the end of incubation compared to response in the donor chamber pre-incubation.

[4] = tested on: MDR1 (P-glycoprotein); test: in vitro; assay type: in vitro ADME, canine; details: dog
Experimental: as §9, §10, §11, §12, §13, §14, §15, §16, §17, §18

[5] = pH 7.4, Papp A>B n=1, wild type MDCK
[6] = pH 7.4, Papp A>B n=2, wild type MDCK
[7] = pH 7.4, Papp B>A n=1, wild type MDCK
[8] = pH 7.4, Papp B>A n=2, wild type MDCK
[9] = pH 7.4, wild type MDCK, read-out: Papp A>B Mean
[10] = pH 7.4, wild type MDCK, read-out: Papp B>A Mean
[11] = pH 7.4, wild type MDCK, read-out: Recovery A>B Mean
[12] = pH 7.4, wild type MDCK, read-out: Recovery A>B n=1
[13] = pH 7.4, wild type MDCK, read-out: Recovery A>B n=2
[14] = pH 7.4, wild type MDCK, read-out: Recovery B>A Mean
[15] = pH 7.4, wild type MDCK, read-out: Recovery B>A n=1
[16] = pH 7.4, wild type MDCK, read-out: Recovery B>A n=2
[17] = MDCK-MDR1, pH 7.4, MDR1 MDCK, read-out: Papp A>B Mean
[18] = MDCK-MDR1, pH 7.4, MDR1 MDCK, read-out: Papp B>A Mean
[19] = MDCK-MDR1, pH 7.4, MDR1 MDCK, read-out: Recovery A>B Mean
[20] = MDCK-MDR1, pH 7.4, MDR1 MDCK, read-out: Recovery A>B n=1
[21] = MDCK-MDR1, pH 7.4, MDR1 MDCK, read-out: Recovery A>B n=2
[22] = MDCK-MDR1, pH 7.4, MDR1 MDCK, read-out: Recovery B>A Mean
[23] = MDCK-MDR1, pH 7.4, MDR1 MDCK, read-out: Recovery B>A n=1
[24] = MDCK-MDR1, pH 7.4, MDR1 MDCK, read-out: Recovery B>A n=2
[25] = MDCK-MDR1, pH 7.4, Papp A>B n=1, MDR1 MDCK
[26] = MDCK-MDR1, pH 7.4, Papp A>B n=2, MDR1 MDCK
[27] = MDCK-MDR1, pH 7.4, Papp B>A n=1, MDR1 MDCK
[28] = MDCK-MDR1, pH 7.4, Papp B>A n=2, MDR1 MDCK

T1 sequence (O15229 whole entry): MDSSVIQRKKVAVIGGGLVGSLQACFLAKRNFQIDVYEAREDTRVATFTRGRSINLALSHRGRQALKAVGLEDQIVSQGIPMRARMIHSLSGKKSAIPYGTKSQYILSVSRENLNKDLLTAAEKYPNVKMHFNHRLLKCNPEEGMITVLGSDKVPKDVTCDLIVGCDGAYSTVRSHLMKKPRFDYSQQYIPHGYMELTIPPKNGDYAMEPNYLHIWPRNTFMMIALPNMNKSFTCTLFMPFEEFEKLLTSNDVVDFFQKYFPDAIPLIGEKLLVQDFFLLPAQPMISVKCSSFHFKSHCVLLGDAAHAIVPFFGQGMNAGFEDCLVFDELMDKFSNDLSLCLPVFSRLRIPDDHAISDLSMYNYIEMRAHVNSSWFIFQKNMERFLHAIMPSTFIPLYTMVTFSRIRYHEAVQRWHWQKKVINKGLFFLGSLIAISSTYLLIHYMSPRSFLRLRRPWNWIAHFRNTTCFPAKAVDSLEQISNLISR

SMILES: Cc1cc2c(c(C)c1Cl)N(CC(=O)N(C)C)C(=O)CO2 [1e]
IC50 [1]: ~300 µM
IC50 [2]: > 300 µM

SMILES: CNC(=O)CN1C(=O)COc2cc(C)c(Cl)c(C)c21 [1f]
IC50 [1]: > 300 µM
IC50 [2]: > 300 µM

SMILES: Cc1cc2c(c(C)c1Cl)N(CC(N)=O)C(=O)CO2 [1g]
IC50 [1]: > 300 µM
IC50 [2]: > 300 µM

Papp A→B at 1 h, 10 µM [3, 5]: 52 ×10⁻⁶ cm/s
Papp A→B at 1 h, 10 µM [3, 6]: 57 ×10⁻⁶ cm/s
Papp B→A at 1 h, 10 µM [3, 7]: 30 ×10⁻⁶ cm/s
Papp B→A at 1 h, 10 µM [3, 8]: 31 ×10⁻⁶ cm/s
Papp A→B at 1 h, 10 µM [3, 9]: 54.5 ×10⁻⁶ cm/s
Papp B→A at 1 h, 10 µM [3, 10]: 30.5 ×10⁻⁶ cm/s
recovery at 1 h, 10 µM [3, 11]: 91%
recovery at 1 h, 10 µM [3, 12]: 88%
recovery at 1 h, 10 µM [3, 13]: 94%
recovery at 1 h, 10 µM [3, 14]: 80.5%
recovery at 1 h, 10 µM [3, 15]: 77%
recovery at 1 h, 10 µM [3, 16]: 84%
efflux ratio at 1 h, 10 µM ([3]; pH 7.4, wild type MDCK, Papp B>A / Papp A>B): 0.56
Papp A→B at 1 h, 10 µM [4, 17]: 52.5 ×10⁻⁶ cm/s
Papp B→A at 1 h, 10 µM [4, 18]: 38 ×10⁻⁶ cm/s
recovery at 1 h, 10 µM [4, 19]: 92.5%
recovery at 1 h, 10 µM [4, 20]: 97%
recovery at 1 h, 10 µM [4, 21]: 88%
recovery at 1 h, 10 µM [4, 22]: 80.5%
recovery at 1 h, 10 µM [4, 23]: 83%
recovery at 1 h, 10 µM [4, 24]: 78%
Papp A→B at 1 h, 10 µM [4, 25]: 53 ×10⁻⁶ cm/s
Papp A→B at 1 h, 10 µM [4, 26]: 52 ×10⁻⁶ cm/s
Papp B→A at 1 h, 10 µM [4, 27]: 39 ×10⁻⁶ cm/s
Papp B→A at 1 h, 10 µM [4, 28]: 37 ×10⁻⁶ cm/s
efflux ratio at 1 h, 10 µM ([4]; pH 7.4, MDR1 MDCK, Papp B>A / Papp A>B): 0.72
SMILES: CC(C)NCC(O)COc1cccc2ccccc12 (centres unmarked) [Propranolol, reference compound]

SMILES: O=C(O)[C@@H]1C[C@H]1C(=O)c1ccc(Cl)c(Cl)c1 [UPF648, reference compound]
IC50 [1]: 0.06 µM
IC50 [2]: 0.12 ± 0.03 µM

Papp A→B at 1 h, 10 µM [3, 5]: < 1 ×10⁻⁶ cm/s
Papp A→B at 1 h, 10 µM [3, 6]: < 1 ×10⁻⁶ cm/s
Papp B→A at 1 h, 10 µM [3, 7]: 3.6 ×10⁻⁶ cm/s
Papp B→A at 1 h, 10 µM [3, 8]: 3.9 ×10⁻⁶ cm/s
Papp A→B at 1 h, 10 µM [3, 9]: < 1 ×10⁻⁶ cm/s
Papp B→A at 1 h, 10 µM [3, 10]: 3.75 ×10⁻⁶ cm/s
recovery at 1 h, 10 µM [3, 11]: 46.5%
recovery at 1 h, 10 µM [3, 12]: 48%
recovery at 1 h, 10 µM [3, 13]: 45%
recovery at 1 h, 10 µM [3, 14]: 72.5%
recovery at 1 h, 10 µM [3, 15]: 71%
recovery at 1 h, 10 µM [3, 16]: 74%
Papp A→B at 1 h, 10 µM [4, 17]: < 1 ×10⁻⁶ cm/s
Papp B→A at 1 h, 10 µM [4, 18]: 22 ×10⁻⁶ cm/s
recovery at 1 h, 10 µM [4, 19]: 55%
recovery at 1 h, 10 µM [4, 20]: 55%
recovery at 1 h, 10 µM [4, 21]: 55%
recovery at 1 h, 10 µM [4, 22]: 67.5%
recovery at 1 h, 10 µM [4, 23]: 71%
recovery at 1 h, 10 µM [4, 24]: 64%
Papp A→B at 1 h, 10 µM [4, 25]: < 1 ×10⁻⁶ cm/s
Papp A→B at 1 h, 10 µM [4, 26]: < 1 ×10⁻⁶ cm/s
Papp B→A at 1 h, 10 µM [4, 27]: 24 ×10⁻⁶ cm/s
Papp B→A at 1 h, 10 µM [4, 28]: 20 ×10⁻⁶ cm/s
SMILES: CC[C@]1(O)C[C@@H]2CN(CCc3c([nH]c4ccccc34)[C@@](C(=O)OC)(c3cc4c(cc3OC)N(C)[C@H]3[C@@](O)(C(=O)OC)[C@H](OC(C)=O)[C@]5(CC)C=CCN6CC[C@]43[C@@H]65)C2)C1 [Vinblastine, reference compound]

SMILES: O=C(O)CCc1ccc(-c2cccs2)n1-c1ccc(Br)cc1 [compound 2, 3-[1-(4-bromophenyl)-5-(2-thienyl)-1H-pyrrol-2-yl] propanoic acid]
IC50 [1]: 1.5 µM
IC50 [2]: 130 ± 18.7 µM

SMILES: Cc1ccc2c(c1)cc(C(=O)N[C@@H](C(=O)O)c1ccccc1)n2C [compound 7, (R)-2-(1,5-dimethyl-1H-indole-2-carboxamido)-2-phenylacetic acid]
IC50 [1]: 21.3 µM
IC50 [2]: 101 ± 9.1 µM
